In US20260115185A1, “QUINOLINE DERIVATIVES WHICH ACT AS KAPPA-OPIOID RECEPTOR ANTAGONISTS” (The Scripps Research Institute, priority 2023, published 2026):
pIC50: −log10 of the molar value.

What was measured:
mu opioid receptor (MOR) = biological target: T1, mu opioid receptor (MOR) (Homo sapiens, UniProt P35372); assay: OPRMu1 Discover X β-arrestin Assay, antagonist mode (U2OS cells, DAMGO EC80 challenge); assay type: cell-based
T1 construct: host or cells: U2OS (Discover X OPRMu1-U2OS, PathHunter)
T1 sequence (P35372 whole entry): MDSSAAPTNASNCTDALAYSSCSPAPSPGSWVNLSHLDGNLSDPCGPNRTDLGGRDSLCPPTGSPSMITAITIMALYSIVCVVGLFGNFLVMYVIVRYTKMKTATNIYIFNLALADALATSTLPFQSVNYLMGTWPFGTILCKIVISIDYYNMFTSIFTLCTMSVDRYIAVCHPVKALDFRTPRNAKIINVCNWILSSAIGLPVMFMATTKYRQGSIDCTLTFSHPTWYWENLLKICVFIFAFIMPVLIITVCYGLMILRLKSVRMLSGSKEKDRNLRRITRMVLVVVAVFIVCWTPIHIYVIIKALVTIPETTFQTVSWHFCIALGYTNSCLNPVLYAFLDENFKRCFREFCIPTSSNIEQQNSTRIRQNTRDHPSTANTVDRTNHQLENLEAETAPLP
In short: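 PathHunter U2OS cells with β-gal fragment-complementation readout for β-arrestin recruitment to OPRMu1. Cells were preincubated with compound (10-point, 1:3 series from nominal 10 micromolar) for 30 min at 37 °C, then challenged with 303 nM DAMGO (EC80) for 3 h. Luminescence gave percent inhibition.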

[1] = biological target: T2, kappa opioid receptor (KOR) (Homo sapiens, UniProt P41145); assay: OPRKappa 1 Tango B-Arrestin Assay, antagonist mode (Tango OPRK1-bla U2OS cells, U50488 EC80 challenge); assay type: cell-based; conditions: for Selectivity (MOR/KOR): Kappa selectivity, MOR IC50 / KOR IC50; for pIC50: antagonist mode, Tango OPRK1-bla U2OS cells, 6 nM U50488 challenge
T2 construct: host or cells: U2OS (Tango OPRK1-bla U2OS)
T2 sequence (P41145 whole entry): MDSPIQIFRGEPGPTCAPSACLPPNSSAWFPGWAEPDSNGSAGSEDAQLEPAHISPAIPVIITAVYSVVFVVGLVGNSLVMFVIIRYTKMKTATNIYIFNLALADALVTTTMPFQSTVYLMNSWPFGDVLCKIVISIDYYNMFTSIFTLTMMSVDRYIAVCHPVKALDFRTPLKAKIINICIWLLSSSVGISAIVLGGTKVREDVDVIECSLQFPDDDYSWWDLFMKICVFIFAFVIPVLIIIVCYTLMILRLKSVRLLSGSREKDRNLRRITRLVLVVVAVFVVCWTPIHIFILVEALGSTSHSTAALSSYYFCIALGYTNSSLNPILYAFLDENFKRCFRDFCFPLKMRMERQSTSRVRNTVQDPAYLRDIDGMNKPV
In short: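 Tango OPRK1-bla U2OS cells, β-arrestin recruitment read as β-lactamase FRET (CCF4-AM, 460/590 nm emission). Compounds, 10-point 1:3 series from nominal 10 µM in quadruplicate, preincubated 30 min at 37 °C, then challenged with U50488 at 6 nM final (EC80) for 4 h; percent inhibition from median ratio.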

pIC50 (mu opioid receptor (MOR))	pIC50 [1]	Structure (SMILES)	Selectivity (MOR/KOR) [1]
< 6.00	8.00 to 9.00	CCc1cc(F)c2nc(N3CC[C@@H](N[C@@H]4CCOC4)[C@H](C)C3)c(-c3ccn(C)n3)c(C)c2c1 [Compound 110]	+++ (between 100- to 1000-fold selective)
< 6.00	8.00 to 9.00	CCc1cc(F)c2nc(N3CC[C@H](N[C@@H]4CCCOC4)[C@@H](C)C3)c(-c3ccn(C)n3)c(C)c2c1 [Compound 112]	+++ (between 100- to 1000-fold selective)
< 6.00	> 9.00	CCc1cc(F)c2nc(N3CC[C@@H](N[C@@H]4CCCOC4)[C@@H](C)C3)c(-c3ccn(C)n3)c(C)c2c1 [Compound 113]	++++ (more than 1000-fold selectivity over MOR)
6.00 to 7.00	8.00 to 9.00	CCc1cc(F)c2nc(N3CC[C@@H](N[C@@H]4CCCOC4)[C@H](C)C3)c(-c3ccn(C)n3)c(C)c2c1 [Compound 114]	++ (between 10- and 100-fold selectivity)
< 6.00	7.00 to 8.00	CCc1cc(F)c2nc(N3CC[C@@H]4[C@@H](CCN4[C@@H]4CCOC4)C3)c(-c3ccn(C)n3)c(C)c2c1 [Compound 123]	+++ (between 100- to 1000-fold selective)
< 6.00	7.00 to 8.00	CCc1cc(F)c2nc(N3CC[C@@H]4[C@@H](CCN4[C@@H]4CCCOC4)C3)c(-c3ccn(C)n3)c(C)c2c1 [Compound 124]	+++ (between 100- to 1000-fold selective)
< 6.00	8.00 to 9.00	CCc1cc(F)c2nc(N3CC[C@H]4[C@H](CCN4[C@@H]4CCOC4)C3)c(-c3ccn(C)n3)c(C)c2c1 [Compound 125]	++++ (more than 1000-fold selectivity over MOR)
< 6.00	7.00 to 8.00	CCc1cc(F)c2nc(N3CC[C@H]4[C@H](CCN4[C@@H]4CCCOC4)C3)c(-c3ccn(C)n3)c(C)c2c1 [Compound 126]	++ (between 10- and 100-fold selectivity)
< 6.00	≤ 7.00	CCc1cc(F)c2nc(N3CC[C@@H]4[C@@H](CCN4C[C@@H]4CCCOC4)C3)c(-c3ccn(C)n3)c(C)c2c1 [Compound 128]	++ (between 10- and 100-fold selectivity)
< 6.00	7.00 to 8.00	CCc1cc(F)c2nc(N3CC[C@H]4[C@H](CCN4C[C@@H]4CCCOC4)C3)c(-c3ccn(C)n3)c(C)c2c1 [Compound 130]	++ (between 10- and 100-fold selectivity)
< 6.00	7.00 to 8.00	CCc1cc(F)c2nc(N3CC[C@@H]4[C@@H](CCN4C[C@@H]4CCCOC4)C3)c(-c3ccn(C)n3)c(C)c2c1 [Compound 133]	+++ (between 100- to 1000-fold selective)

Further lines, the molecule ahead of its results:

Structure (SMILES)	pIC50 (mu opioid receptor (MOR))	pIC50 [1]	Selectivity (MOR/KOR) [1]
CCc1cc(-c2ccn(C)n2)c2nc(N3CCC(N[C@@H]4CCOC4)CC3)c(-c3ccn(C)n3)c(C)c2c1 [Compound 100]	< 6.00	> 9.00	++++ (more than 1000-fold selectivity over MOR)
CCc1cc(-c2ccn(C)n2)c2nc(N3CCN(C(=O)C4CCOCC4)C[C@H]3C)c(-c3ccn(C)n3)c(C)c2c1 [Compound 101]	< 6.00	< 6.00	–
CCc1cc(-c2ccn(C)n2)c2nc(N3CCC(N[C@H]4CCOC[C@@H]4F)CC3)c(-c3nc(C)no3)c(C)c2c1 [Compound 102]	< 6.00	> 9.00	++++ (more than 1000-fold selectivity over MOR)
CCc1cc(-c2ccn(C)n2)c2nc(N3CCC(NC4CC(F)(F)C4)CC3)c(-c3nc(C)no3)c(C)c2c1 [Compound 103]	< 6.00	8.00 to 9.00	+++ (between 100- to 1000-fold selective)
CCc1cc(-c2ccn(C)n2)c2nc(N3CCNC[C@H]3C)c(-c3nc(C)no3)c(C)c2c1 [Compound 104]	< 6.00	7.00 to 8.00	+++ (between 100- to 1000-fold selective)
CCc1cc(-c2cc[nH]n2)c2nc(N3CCNC[C@H]3C)c(-c3nc(C)no3)c(C)c2c1 [Compound 105]	< 6.00	7.00 to 8.00	++ (between 10- and 100-fold selectivity)
CCc1cc(-c2cnn(CCO)c2)c2nc(N3CCNC[C@H]3C)c(-c3nc(C)no3)c(C)c2c1 [Compound 106]	< 6.00	≤ 7.00	++ (between 10- and 100-fold selectivity)
CCc1cc(F)c2nc(N3CC[C@H](N[C@@H]4CCOC4)[C@H](C)C3)c(-c3ccn(C)n3)c(C)c2c1 [Compound 107]	< 6.00	7.00 to 8.00	+++ (between 100- to 1000-fold selective)
CCc1cc(F)c2nc(N3CC[C@H](N[C@@H]4CCOC4)[C@@H](C)C3)c(-c3ccn(C)n3)c(C)c2c1 [Compound 108]	6.00 to 7.00	8.00 to 9.00	+++ (between 100- to 1000-fold selective)
CCc1cc(F)c2nc(N3CC[C@@H](N[C@@H]4CCOC4)C[C@@H]3C)c(-c3ccn(C)n3)c(C)c2c1 [Compound 116]	< 6.00	8.00 to 9.00	++++ (more than 1000-fold selectivity over MOR)
CCc1cc(F)c2nc(N3CC[C@H](N[C@@H]4CCOC4)C[C@@H]3C)c(-c3ccn(C)n3)c(C)c2c1 [Compound 117]	6.00 to 7.00	8.00 to 9.00	+++ (between 100- to 1000-fold selective)
CCc1cc(F)c2nc(N3CC[C@H](N[C@@H]4CCOC4)C[C@H]3C)c(-c3ccn(C)n3)c(C)c2c1 [Compound 118]	6.00 to 7.00	> 9.00	++++ (more than 1000-fold selectivity over MOR)
CCc1cc(F)c2nc(N3CC[C@@H](N[C@@H]4CCCOC4)C[C@H]3C)c(-c3ccn(C)n3)c(C)c2c1 [Compound 119]	6.00 to 7.00	> 9.00	++++ (more than 1000-fold selectivity over MOR)
CCc1cc(F)c2nc(N3CC[C@@H](N[C@@H]4CCCOC4)C[C@@H]3C)c(-c3ccn(C)n3)c(C)c2c1 [Compound 120]	< 6.00	> 9.00	++++ (more than 1000-fold selectivity over MOR)
CCc1cc(F)c2nc(N3CC[C@H](N[C@@H]4CCCOC4)C[C@@H]3C)c(-c3ccn(C)n3)c(C)c2c1 [Compound 121]	< 6.00	7.00 to 8.00	+++ (between 100- to 1000-fold selective)
CCc1cc(F)c2nc(N3CC[C@H](N[C@@H]4CCCOC4)C[C@H]3C)c(-c3ccn(C)n3)c(C)c2c1 [Compound 122]	7.00 to 8.00	> 9.00	+++ (between 100- to 1000-fold selective)
CCc1cc(F)c2nc(N3CC[C@@H](N[C@@H]4CCOC4)C[C@H]3C)c(-c3cc(C)no3)c(C)c2c1 [Compound 137]	6.00 to 7.00	> 9.00	++++ (more than 1000-fold selectivity over MOR)
CCc1cc(F)c2nc(N3CC[C@@H](N[C@@H]4CCOC4)C[C@@H]3C)c(-c3cc(C)no3)c(C)c2c1 [Compound 138]	< 6.00	7.00 to 8.00	+++ (between 100- to 1000-fold selective)
CCc1cc(F)c2nc(N3CC[C@H](N[C@@H]4CCOC4)C[C@H]3C)c(-c3cc(C)no3)c(C)c2c1 [Compound 140]	6.00 to 7.00	> 9.00	+++ (between 100- to 1000-fold selective)
